Measurements published in patent US7795261B2, “Substituted 1-piperidin-4-yl-4-pyrrolidin-3-yl-piperazine derivatives and their use as neurokinin antagonists” (Janssen Pharmaceutica NV, priority 2002, dated 2010).

Columns and labels:
NK1 = NK1 (Homo sapiens, UniProt P25103); assay: Signal transduction (ST), intracellular Ca++ (FLIPR), NK1 antagonistic activity; type: cell-based; conditions: read-out: pIC50 NK1 (converted)
Protocol: (§1) This test evaluates in vitro functional NK1 antagonistic activity. For the measurements of intracellular Ca^++ concentrations the cells were grown on 96-well (black wall/transparent bottom) plates from Costar for 2 days until they reached confluence. The cells were loaded with 2 μM Fluo3 in DMEM containing 0.1% BSA and 2.5 mM probenecid for 1 h at 37° C. They were washed 3× with a Krebs buffer (140 mM NaCl, 1 mM MgCl2×6H2O, 5 mM KCl, 10 mM glucose, 5 mM HEPES; 1.25 mM CaCl2; pH 7.4) containing 2.5 mM probenecid and 0.1% BSA (Ca^++-buffer). The cells were preincubated with a concentration range of antagonists for 20 min at RT and Ca^++-signals after addition of the agonists were measured in a Fluorescence Image Plate Reader (FLIPR from Molecular Devices, Crawley, England). The peak of the Ca^++-transient was considered as the relevant signal and the mean values of corresponding wells were analysed as described below.
The sigmoidal dose response curves were analysed by computerised curve-fitting, using the GraphPad Program. […] For antagonist responses the IC50-value was calculated using non-linear regression. […]

NK3 = molecular target: T1, NK3 (Homo sapiens, UniProt P29371); assay: Signal transduction (ST), intracellular Ca++ (FLIPR), NK3; type: cell-based; conditions: read-out: pIC50 NK3 (converted)
T1 sequence (P29371 1-465): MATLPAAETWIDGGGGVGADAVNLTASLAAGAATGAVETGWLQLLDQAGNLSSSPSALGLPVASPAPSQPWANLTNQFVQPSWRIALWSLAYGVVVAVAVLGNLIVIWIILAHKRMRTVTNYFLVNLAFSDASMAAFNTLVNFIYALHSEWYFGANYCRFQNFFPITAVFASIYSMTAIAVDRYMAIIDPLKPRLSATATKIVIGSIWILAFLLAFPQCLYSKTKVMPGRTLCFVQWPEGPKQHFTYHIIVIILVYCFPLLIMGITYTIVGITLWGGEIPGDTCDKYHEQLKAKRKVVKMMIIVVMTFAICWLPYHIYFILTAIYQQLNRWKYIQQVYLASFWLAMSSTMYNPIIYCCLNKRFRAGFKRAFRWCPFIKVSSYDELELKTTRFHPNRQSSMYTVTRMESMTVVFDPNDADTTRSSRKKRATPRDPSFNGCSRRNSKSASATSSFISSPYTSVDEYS
Protocol: [The procedure below names another target; the source lists this target under the same test.] as §1
The sigmoidal dose response curves were analysed by computerised curve-fitting, using the GraphPad Program. […] For antagonist responses the IC50-value was calculated using non-linear regression.
The last columns indicates—without being limited therefore—for which the compounds might be most suitable. Of course, since for some neurokinin receptors no data was determined, it is obvious that these compounds might be attributed to another suitable use.

Sequence of NK1 (P25103 whole entry): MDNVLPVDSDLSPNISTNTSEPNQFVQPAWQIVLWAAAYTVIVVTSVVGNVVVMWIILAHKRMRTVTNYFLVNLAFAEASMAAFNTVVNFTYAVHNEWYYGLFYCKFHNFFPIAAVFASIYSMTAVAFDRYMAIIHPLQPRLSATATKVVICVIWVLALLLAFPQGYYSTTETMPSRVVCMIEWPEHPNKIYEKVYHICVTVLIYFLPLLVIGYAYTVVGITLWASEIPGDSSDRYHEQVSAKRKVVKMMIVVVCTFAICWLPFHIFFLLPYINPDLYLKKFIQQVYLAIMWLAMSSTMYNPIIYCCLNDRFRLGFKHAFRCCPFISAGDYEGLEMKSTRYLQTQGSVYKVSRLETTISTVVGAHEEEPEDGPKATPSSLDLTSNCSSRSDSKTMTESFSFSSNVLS

Structure (SMILES)	IC50 (NK1)	IC50 (NK3)
Cc1nnsc1C(=O)N1CCC(N2CCN([C@H]3CCN(C(=O)c4cc(C(F)(F)F)cc(C(F)(F)F)c4)[C@H](Cc4ccccc4)C3)CC2)C1 (some centres unmarked) [Compound 51]	0.0631 µM	3.98 µM
O=C(c1csnn1)N1CCC(N2CCN([C@H]3CCN(C(=O)c4cc(C(F)(F)F)cc(C(F)(F)F)c4)[C@H](Cc4ccccc4)C3)CC2)C1 (some centres unmarked) [Compound 52]	0.0316 µM	0.631 µM
O=C(c1snnc1-c1ccccc1)N1CCC(N2CCN([C@H]3CCN(C(=O)c4cc(C(F)(F)F)cc(C(F)(F)F)c4)[C@H](Cc4ccccc4)C3)CC2)C1 (some centres unmarked) [Compound 53]	0.0398 µM	3.16 µM
O=C(c1cccc2ccccc12)N1CCC(N2CCN([C@H]3CCN(C(=O)c4cc(C(F)(F)F)cc(C(F)(F)F)c4)[C@H](Cc4ccccc4)C3)CC2)C1 (some centres unmarked) [Compound 54]	0.0398 µM	0.794 µM
COc1ccc2[nH]c(C(=O)N3CCC(N4CCN([C@H]5CCN(C(=O)c6cc(C(F)(F)F)cc(C(F)(F)F)c6)[C@H](Cc6ccccc6)C5)CC4)C3)cc2c1 (some centres unmarked) [Compound 55]	0.316 µM	7.94 µM
Cn1c(C(=O)N2CCC(N3CCN([C@H]4CCN(C(=O)c5cc(C(F)(F)F)cc(C(F)(F)F)c5)[C@H](Cc5ccccc5)C4)CC3)C2)cc2ccccc21 (some centres unmarked) [Compound 57]	0.126 µM	3.16 µM
O=C(c1cnc2ccccc2n1)N1CCC(N2CCN([C@H]3CCN(C(=O)c4cc(C(F)(F)F)cc(C(F)(F)F)c4)[C@H](Cc4ccccc4)C3)CC2)C1 (some centres unmarked) [Compound 60]	0.0316 µM	2.51 µM
O=C(C1CCc2cc(F)ccc2O1)N1CCC(N2CCN([C@H]3CCN(C(=O)c4cc(C(F)(F)F)cc(C(F)(F)F)c4)[C@H](Cc4ccccc4)C3)CC2)C1 (some centres unmarked) [Compound 61]	0.0316 µM	6.31 µM
O=C(c1cc2ccccc2o1)N1CCC(N2CCN([C@H]3CCN(C(=O)c4cc(C(F)(F)F)cc(C(F)(F)F)c4)[C@H](Cc4ccccc4)C3)CC2)C1 (some centres unmarked) [Compound 62]	0.0631 µM	3.98 µM
O=C(c1cc2ccccc2s1)N1CCC(N2CCN([C@H]3CCN(C(=O)c4cc(C(F)(F)F)cc(C(F)(F)F)c4)[C@H](Cc4ccccc4)C3)CC2)C1 (some centres unmarked) [Compound 63]	0.126 µM	3.16 µM
COc1cc(CC(=O)N2CCC(N3CCN([C@H]4CCN(C(=O)c5cc(C(F)(F)F)cc(C(F)(F)F)c5)[C@H](Cc5ccccc5)C4)CC3)C2)cc(OC)c1OC (some centres unmarked) [Compound 65]	0.0126 µM	3.16 µM
O=C(c1ccno1)N1CCC(N2CCN([C@H]3CCN(C(=O)c4cc(C(F)(F)F)cc(C(F)(F)F)c4)[C@H](Cc4ccccc4)C3)CC2)C1 (some centres unmarked) [Compound 68]	0.0316 µM	1.58 µM
CC1(C(=O)N2CCC(N3CCN([C@H]4CCN(C(=O)c5cc(C(F)(F)F)cc(C(F)(F)F)c5)[C@H](Cc5ccccc5)C4)CC3)C2)CC1 (some centres unmarked) [Compound 73]	0.01 µM	1.58 µM
O=C(C1CCCC1)N1CCC(N2CCN([C@H]3CCN(C(=O)c4cc(C(F)(F)F)cc(C(F)(F)F)c4)[C@H](Cc4ccccc4)C3)CC2)C1 (some centres unmarked) [Compound 74]	0.02 µM	0.501 µM
O=C(C1CCCO1)N1CCC(N2CCN([C@H]3CCN(C(=O)c4cc(C(F)(F)F)cc(C(F)(F)F)c4)[C@H](Cc4ccccc4)C3)CC2)C1 (some centres unmarked) [Compound 97]	0.01 µM	2.51 µM
O=C(C1COc2ccccc2O1)N1CCC(N2CCN([C@H]3CCN(C(=O)c4cc(C(F)(F)F)cc(C(F)(F)F)c4)[C@H](Cc4ccccc4)C3)CC2)C1 (some centres unmarked) [Compound 98]	0.0126 µM	5.01 µM
O=C(C1COC2CCCCC2O1)N1CCC(N2CCN([C@H]3CCN(C(=O)c4cc(C(F)(F)F)cc(C(F)(F)F)c4)[C@H](Cc4ccccc4)C3)CC2)C1 (some centres unmarked) [Compound 99]	0.00794 µM	3.16 µM
O=C(C(NCCO)c1ccccc1)N1CCC(N2CCN([C@H]3CCN(C(=O)c4cc(C(F)(F)F)cc(C(F)(F)F)c4)[C@H](Cc4ccccc4)C3)CC2)C1 (some centres unmarked) [Compound 106]	0.0316 µM	3.98 µM
O=C(C(c1ccccc1)N1CCCC1)N1CCC(N2CCN(C3CCN(C(=O)c4cc(C(F)(F)F)cc(C(F)(F)F)c4)C(Cc4ccccc4)C3)CC2)C1 (centres unmarked) [Compound 108]	0.0316 µM	2.51 µM
COC(C(=O)N1CCC(N2CCN(C3CCN(C(=O)c4cc(C(F)(F)F)cc(C(F)(F)F)c4)C(Cc4ccccc4)C3)CC2)C1)c1ccccc1 (centres unmarked) [Compound 109]	0.0126 µM	7.94 µM
Cc1nccn1C(C(=O)N1CCC(N2CCN(C3CCN(C(=O)c4cc(C(F)(F)F)cc(C(F)(F)F)c4)C(Cc4ccccc4)C3)CC2)C1)c1ccccc1 (centres unmarked) [Compound 110]	0.02 µM	5.01 µM
O=C(C(c1ccccc1)n1cc(Br)cn1)N1CCC(N2CCN([C@H]3CCN(C(=O)c4cc(C(F)(F)F)cc(C(F)(F)F)c4)[C@H](Cc4ccccc4)C3)CC2)C1 (some centres unmarked) [Compound 111]	0.0794 µM	6.31 µM
CC(C)(C)OC(=O)N1CCC(N2CCN(C3CCN(C(=O)c4cc(C(F)(F)F)cc(C(F)(F)F)c4)C(Cc4ccccc4)C3)CC2)C1 (centres unmarked) [Compound 130]	0.0398 µM	3.16 µM

Next, values leading:

IC50 (NK1)	IC50 (NK3)	Structure (SMILES)
0.0126 µM	2 µM	CN(C)C(=O)N1CCC(N2CCN([C@H]3CCN(C(=O)c4cc(C(F)(F)F)cc(C(F)(F)F)c4)[C@H](Cc4ccccc4)C3)CC2)C1 (some centres unmarked) [Compound 145]
0.0126 µM	3.16 µM	Cc1nnsc1C(=O)N1CCC(N2CCN(C3CCN(C(=O)c4cc(C(F)(F)F)cc(C(F)(F)F)c4)C(Cc4ccc(Cl)c(Cl)c4)C3)CC2)C1 (centres unmarked) [Compound 161]
0.00631 µM	1.58 µM	O=C(c1snnc1CO)N1CCC(N2CCN(C3CCN(C(=O)c4cc(C(F)(F)F)cc(C(F)(F)F)c4)C(Cc4ccccc4)C3)CC2)C1 (centres unmarked) [Compound 166]
0.00794 µM	0.501 µM	O=C(c1cccnc1Cl)N1CCC(N2CCN([C@H]3CCN(C(=O)c4cc(C(F)(F)F)cc(C(F)(F)F)c4)[C@H](Cc4ccccc4)C3)CC2)C1 (some centres unmarked) [Compound 168]
0.0631 µM	2.51 µM	COCC(=O)N1CCC(N2CCN(C3CCN(C(=O)c4cc(C(F)(F)F)cc(C(F)(F)F)c4)C(Cc4ccccc4)C3)CC2)C1 (centres unmarked) [Compound 177]
0.00631 µM	1.58 µM	O=C(C1CCC1)N1CCC(N2CCN([C@H]3CCN(C(=O)c4cc(C(F)(F)F)cc(C(F)(F)F)c4)[C@H](Cc4ccccc4)C3)CC2)C1 (some centres unmarked) [Compound 179]
0.0158 µM	5.01 µM	CC(=O)N1CCCC1C(=O)N1CCC(N2CCN([C@H]3CCN(C(=O)c4cc(C(F)(F)F)cc(C(F)(F)F)c4)[C@H](Cc4ccccc4)C3)CC2)C1 (some centres unmarked) [Compound 187]
0.0251 µM	2 µM	O=C(C(=O)N1CCC(N2CCN([C@H]3CCN(C(=O)c4cc(C(F)(F)F)cc(C(F)(F)F)c4)[C@H](Cc4ccccc4)C3)CC2)C1)c1cccs1 (some centres unmarked) [Compound 188]
0.00794 µM	0.251 µM	CC(C)(C)OC(=O)N1CCC[C@@H]1C(=O)N1CCC(N2CCN([C@H]3CCN(C(=O)c4cc(C(F)(F)F)cc(C(F)(F)F)c4)[C@H](Cc4ccccc4)C3)CC2)C1 (some centres unmarked) [Compound 189]
0.0126 µM	0.398 µM	N#Cc1ccccc1C(=O)N1CCC(N2CCN(C3CCN(C(=O)c4cc(C(F)(F)F)cc(C(F)(F)F)c4)C(Cc4ccccc4)C3)CC2)C1 (centres unmarked) [Compound 195]
0.0316 µM	2.51 µM	CC(=O)N1CCC(N2CCN([C@H]3CCN(C(=O)c4cc(C(F)(F)F)cc(C(F)(F)F)c4)[C@H](Cc4ccccc4)C3)CC2)C1 (some centres unmarked) [Compound 198]
